Source: ChEMBL document CHEMBL5316264, “Identification of N- and C-3-Modified Laudanosoline Derivatives as Novel Influenza PAN Endonuclease Inhibitors” (J Med Chem, 2023)
The source made the active and inactive calls. The rule behind the calls is not given here.

Legend:
[1] = Cytotoxicity against MDCK cells incubated for 48 hrs by MTT assay; type: toxicity, cell-based, Canis lupus familiaris; details: dog
Influenza A virus [2] = assay: Antiviral activity against influenza A virus H3N2(JX/312) infected in MDCK cells assessed as inhibition of cytopathic effect incubated for 48 hrs by MTT assay; type: functional, organism-based
Influenza A virus [3] = assay: Antiviral activity against influenza A virus Flu (B/Lee/1940) infected in MDCK cells assessed as inhibition of cytopathic effect incubated for 48 hrs by MTT assay; type: functional, organism-based
in vitro = details: dog, MDCK cells
Influenza A virus [4] = assay: Antiviral activity against influenza A virus H5N1(A/Duck/Guangdong/212/2004) infected in MDCK cells assessed as inhibition of cytopathic effect incubated for 48 hrs by MTT assay; type: functional, organism-based
Influenza A virus [5] = assay: Antiviral activity against Influenza A A/WSN/33 (H1N1) infected in BALB/c mouse at 10 mg/kg/day, ip administered twice daily for 5 days starting from 1 hrs post infection and measured daily for 14 days; type: functional, organism-based; details: time 5.0 day
[6] = Metabolic stability in mouse liver microsomes assessed as half life at 10 uM incubated for 5 mins in presence of NADPH by LC-MS/MS analysis; type: ADME, Microsome
[7] = Metabolic stability in mouse liver microsomes assessed as intrinsic clearance at 10 uM incubated for 5 mins in presence of NADPH by LC-MS/MS analysis; type: ADME, Microsome; details: read-out: CLH
Influenza A virus [8] = assay: Antiviral activity against influenza A virus A/WSN/33 (H1N1) infected in MDCK cells at 20 uM pre-infected with virus for 1 hr followed by compound addition and measured after 24 hrs post infection; type: functional, organism-based
[9] = biological target: Polymerase acidic protein (Influenza A virus (A/Puerto Rico/8/1934(H1N1))) (UniProt P03433); assay: Inhibition of Influenza A virus N-terminal domain of PA endonuclease using 6FAM-TGGCAATATCAGCTCCACA-MGBNFQ as fluorescent substrate by FRET analysis
[10] = Metabolic stability in mouse plasma assessed as compound remaining measured after 90 mins by LC-MS/MS analysis; type: ADME, cell-free; details: read-out: Stability
[11] = Metabolic stability in mouse plasma assessed as compound remaining measured after 30 mins by LC-MS/MS analysis; type: ADME, cell-free; details: read-out: Stability
[12] = Metabolic stability in mouse plasma assessed as compound remaining measured after 60 mins by LC-MS/MS analysis; type: ADME, cell-free; details: read-out: Stability
[13] = Metabolic stability in mouse plasma assessed as compound remaining measured after 120 mins by LC-MS/MS analysis; type: ADME, cell-free; details: read-out: Stability

Row | SMILES | CC50 at 48 h [1] | selectivity ratio (in vitro) | further results
1 | CCC(CC)[C@H](NC(C)=O)[C@@H]1[C@H](O)[C@@H](C(=O)O)C[C@H]1NC(=N)N [PERAMIVIR ANHYDROUS] | > 101 µM | > 19.2 | EC50 (Influenza A virus [2]): 215 µM; EC50 (Influenza A virus [3]): 1.66 µM; EC50 (Influenza A virus [4]): 1.06 µM; Activity (Influenza A virus [5]): Active
2 | COC(=O)[C@@H]1Cc2cc(O)c(O)cc2[C@H](Cc2ccc(O)c(O)c2)N1C(=O)c1ccccc1Br | > 101 µM | > 29.5 | 
3 | COC(=O)[C@@H]1Cc2cc(O)c(O)cc2[C@H](Cc2ccc(O)c(O)c2)N1C(=O)c1ccc(Br)cc1 | > 101 µM | > 25.5 | 
4 | CN(C)C(=O)[C@@H]1Cc2cc(O)c(O)cc2[C@H](Cc2ccc(O)c(O)c2)N1C(=O)c1ccccc1Cl | 137 µM | 10.8 | 
5 | O=C(O[C@@H]1Cc2c(O)cc(O)cc2O[C@@H]1c1cc(O)c(O)c(O)c1)c1cc(O)c(O)c(O)c1 [EPIGALOCATECHIN GALLATE] | > 100 µM | > 3.3 | 
6 | COC(=O)COC(=O)[C@@H]1Cc2cc(O)c(O)cc2[C@H](Cc2ccc(O)c(O)c2)N1C(=O)c1ccccc1Cl | 163 µM | 67.1 | 
7 | COC(=O)[C@@H]1Cc2cc(O)c(O)cc2[C@H](Cc2ccc(O)c(O)c2)N1C(=O)c1ccc(Cl)cc1 | 87.4 µM | 34.5 | 
8 | O=C(O)Cc1ccccc1Nc1c(Cl)cccc1Cl [DICLOFENAC] |  |  | half-life at 10 µM [6]: 12.1 min; microsomal CLint at 10 µM [7]: 112 µL/min/mg
9 | COC(=O)[C@@H]1Cc2cc(O)c(O)cc2[C@H](Cc2ccc(O)c(O)c2)N1C(=O)c1cccc(Cl)c1 | 61.1 µM | 25.3 | 
10 | O=C(Oc1ccccc1)[C@@H]1Cc2cc(O)c(O)cc2[C@H](Cc2ccc(O)c(O)c2)N1C(=O)c1ccccc1Cl | 70.3 µM | 52.1 | 
11 | COC(=O)[C@@H]1Cc2cc(O)c(O)cc2[C@H](Cc2ccc(O)c(O)c2)N1C(=O)c1ccc(Cl)cc1Cl | > 101 µM | > 21.2 | 
12 | COC(=O)[C@@H]1Cc2cc(O)c(O)cc2[C@H](Cc2ccc(O)c(O)c2)N1C(=O)c1cccc([N+](=O)[O-])c1 | > 101 µM | > 5.3 | 
13 | COC(=O)[C@@H]1Cc2cc(O)c(O)cc2[C@H](Cc2ccc(O)c(O)c2)N1C(=O)c1ccccc1[N+](=O)[O-] | > 101 µM | > 9.2 | 
14 | CC(=O)N[C@H]1[C@H]([C@H](O)[C@H](O)CO)OC(C(=O)O)=C[C@@H]1NC(=N)N |  |  | Activity (Influenza A virus [8]): inactive
15 | O=C(Nc1ccccc1)[C@@H]1Cc2cc(O)c(O)cc2[C@H](Cc2ccc(O)c(O)c2)N1C(=O)c1ccccc1Cl | 169 µM | 10.8 | 
16 | COC(=O)[C@@H]1Cc2cc(O)c(O)cc2[C@H](Cc2ccc(O)c(O)c2)N1C(=O)c1cccc(F)c1 | 73.7 µM | 25.8 | 
17 | O=C(O)[C@@H]1Cc2cc(O)c(O)cc2[C@H](Cc2ccc(O)c(O)c2)N1C(=O)c1ccccc1Cl | 103 µM | 5.4 | 
18 | COC(=O)[C@@H]1Cc2cc(O)c(O)cc2[C@H](Cc2ccc(O)c(O)c2)N1C(=O)c1ccccc1Cl | 89.8 µM | 49.3 | EC50 (Influenza A virus [2]): 0.92 µM; EC50 (Influenza A virus [3]): 0.86 µM; EC50 (Influenza A virus [4]): 2.36 µM

Row | SMILES | CC50 at 48 h [1] | selectivity ratio (in vitro) | further results
19 | COC(=O)CNC(=O)[C@@H]1Cc2cc(O)c(O)cc2[C@H](Cc2ccc(O)c(O)c2)N1C(=O)c1ccccc1Cl | 143 µM | 36.8 | 
20 | COC(=O)[C@@H]1Cc2cc(O)c(O)cc2[C@H](Cc2ccc(O)c(O)c2)N1C(=O)c1ccccc1C(F)(F)F | > 101 µM | > 11.1 | 
21 | COC(=O)[C@@H]1Cc2cc(O)c(O)cc2[C@H](Cc2ccc(O)c(O)c2)N1C(=O)c1c(Cl)cccc1Cl | 81.6 µM | 15.5 | 
22 | CCCCCCC(=O)N1[C@H](C(=O)OC)Cc2cc(O)c(O)cc2[C@@H]1Cc1ccc(O)c(O)c1 | 84.3 µM | 5.1 | 
23 | C=CC(=O)N1[C@H](C(=O)OC)Cc2cc(O)c(O)cc2[C@@H]1Cc1ccc(O)c(O)c1 | 47.5 µM | 8.9 | 
24 | COC(=O)[C@@H]1Cc2cc(O)c(O)cc2[C@H](Cc2ccc(O)c(O)c2)N1C(=O)c1ccc2ccccc2c1 | 45.2 µM | 15.6 | 
25 | COC(=O)[C@@H]1Cc2cc(O)c(O)cc2[C@H](Cc2ccc(O)c(O)c2)N1C(=O)c1ccc(C(F)(F)F)cc1 | > 101 µM | > 10.8 | 
26 | COC(=O)[C@@H]1Cc2cc(O)c(O)cc2[C@H](Cc2ccc(O)c(O)c2)N1C(=O)c1cccc(Br)c1 | > 101 µM | > 26.4 | 
27 | COC(=O)[C@@H]1Cc2cc(O)c(O)cc2[C@H](Cc2ccc(O)c(O)c2)N1C(=O)c1ccc(F)cc1 | > 101 µM | > 33.6 | 
28 | O=C1c2c(O)c(=O)ccn2N([C@@H]2c3ccccc3SCc3c2ccc(F)c3F)[C@@H]2COCCN12 [BALOXAVIR] | > 100 µM | > 11700 | 
29 | CCOC(=O)[C@@H]1Cc2cc(O)c(O)cc2[C@H](Cc2ccc(O)c(O)c2)N1C(=O)c1ccccc1Cl | 98.5 µM | 30.7 | 
30 | COC(=O)[C@@H]1Cc2cc(O)c(O)cc2[C@H](Cc2ccc(O)c(O)c2)N1C(=O)c1ccccc1 | 157 µM | 29.7 | inhibition [9]: Dose-Dependent Effect
31 | COC(=O)[C@@H]1Cc2cc(O)c(O)cc2[C@H](Cc2ccc(O)c(O)c2)N1C(=O)C1CCCCC1 | 64.5 µM | 3.4 | 
32 | O=C(Nc1ccncc1)[C@@H]1Cc2cc(O)c(O)cc2[C@H](Cc2ccc(O)c(O)c2)N1C(=O)c1ccccc1Cl | 203 µM | 101 | EC50 (Influenza A virus [2]): 0.95 µM; EC50 (Influenza A virus [3]): 0.82 µM; EC50 (Influenza A virus [4]): 2.85 µM
33 | CN1CCc2cc(O)c(O)cc2C1Cc1ccc(O)c(O)c1 (racemic) | > 200 µM | > 5.4 | 
34 | COC(=O)[C@@H]1Cc2cc(O)c(O)cc2[C@H](Cc2ccc(O)c(O)c2)N1C(=O)c1ccccc1F | 82.3 µM | 29.7 | 
35 | CC(C)[N+](C)(CCOC(=O)C1c2ccccc2Oc2ccccc21)C(C)C [PROPANTHELINE BROMIDE] |  |  | remaining at 1.5 h [10]: 10.3%; remaining at 0.5 h [11]: 45.5%; remaining at 1 h [12]: 18.2%; remaining at 2 h [13]: 2%
36 | COC(=O)[C@@H]1Cc2cc(O)c(O)cc2[C@H](Cc2ccc(O)c(O)c2)N1C(=O)c1cccc(C(F)(F)F)c1 | > 101 µM | > 11.8 | 
